From article PMC5828360, “Identification and characterization of highly versatile peptide-vectors that bind non-competitively to the low-density lipoprotein receptor for in vivo targeting and delivery of small molecules and protein cargos” (PLoS ONE, 2018)
Where a SMILES comes first, the peptide text is derived from it. The star is where a group is joined. Propionyl = CCC(=O)*

How the values were obtained:
[1] = target: T1, hLDLR (Homo sapiens, UniProt P01130); assay: Image J quantification of co-localization with hLDLR-GFP; format: cell-based; conditions: CHO-hLDLR-GFP, 10 μM, n = 3
T1 construct: Full length coding regions for hLDLR, mLDLR, rLDLR and hTfR were amplified by RT-PCR; expressed in transfected cells

[2] = target: T2, hTfR (Homo sapiens, UniProt P02786); assay: Image J quantification of co-localization with hTfR-GFP (control); format: cell-based; conditions: CHO-hTfR-GFP, 10 μM
T2 construct: Full length coding regions for hLDLR, mLDLR, rLDLR and hTfR were amplified by RT-PCR; expressed in transfected cells

[3] = target: T3, mLDLR (Mus musculus, UniProt P35951); conditions: in vivo, iv, 0.5 mg/kg
T3 construct: cells expressing LDLR in the zona fasciculata of WT mice; from tissue; host or cells: adrenal gland of C57Bl/6J mice (WT; ldlr-/- as control)
Description: For immunohistochemistry, transcardiac NaCl 0.9% perfusion was followed by 50 mL of PBS 1X- 4% paraformaldehyde (PFA). Mice organs were then removed and snap frozen in cold isopentane. Cryostat (Leica CM-3050-S) sections (14 μm thick) were stored at −80°C. Organ sections were first permeabilized and blocked for 1 hr at room temperature using a solution of PBS 1X, 0.1% Triton X-100 and 3% Bovine Serum Albumin (BSA). Sections were then incubated overnight at 4°C with anti-Fc-A594 (goat, 1/200, Jackson ImmunoResearch) and anti-mLDLR (goat 1/200, R&D Systems), followed by anti-goat-Alexa 488 (donkey, 1/800, Life Technologies) for 1 hr at room temperature. Nuclei were stained with Hoechst (0.5 μg/mL, Life Technologies). Omission of the primary antibody was used as control and no immunostaining was observed. Sections were mounted using Prolong Gold Antifading reagent (Life Technologies) on Superfrost glass slides. Images were taken and processed using a confocal microscope (LSM 700) and Zen software (Zeiss, Jena, Germany).

T1 sequence (P01130 22-860): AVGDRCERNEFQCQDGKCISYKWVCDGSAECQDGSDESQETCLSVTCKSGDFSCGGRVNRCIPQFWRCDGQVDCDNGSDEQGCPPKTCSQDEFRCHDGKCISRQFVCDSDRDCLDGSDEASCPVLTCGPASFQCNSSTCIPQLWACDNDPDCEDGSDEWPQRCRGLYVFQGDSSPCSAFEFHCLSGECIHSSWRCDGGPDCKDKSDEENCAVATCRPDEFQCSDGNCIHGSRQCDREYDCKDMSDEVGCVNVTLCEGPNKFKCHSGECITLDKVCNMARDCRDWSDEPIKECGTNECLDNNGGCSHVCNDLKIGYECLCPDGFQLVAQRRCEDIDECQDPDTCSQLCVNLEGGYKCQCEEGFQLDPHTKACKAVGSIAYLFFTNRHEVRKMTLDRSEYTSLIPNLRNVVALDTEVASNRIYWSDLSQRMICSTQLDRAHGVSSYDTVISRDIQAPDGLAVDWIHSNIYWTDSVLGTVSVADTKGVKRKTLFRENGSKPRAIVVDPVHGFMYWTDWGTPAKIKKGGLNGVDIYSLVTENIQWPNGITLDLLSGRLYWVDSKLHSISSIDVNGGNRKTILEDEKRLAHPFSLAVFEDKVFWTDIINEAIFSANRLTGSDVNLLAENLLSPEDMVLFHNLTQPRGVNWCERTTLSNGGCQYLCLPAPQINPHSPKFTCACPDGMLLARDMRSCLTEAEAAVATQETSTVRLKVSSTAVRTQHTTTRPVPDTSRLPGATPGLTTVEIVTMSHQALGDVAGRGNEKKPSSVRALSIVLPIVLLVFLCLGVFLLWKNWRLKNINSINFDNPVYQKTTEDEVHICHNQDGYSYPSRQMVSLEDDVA
T3 sequence (P35951 22-862): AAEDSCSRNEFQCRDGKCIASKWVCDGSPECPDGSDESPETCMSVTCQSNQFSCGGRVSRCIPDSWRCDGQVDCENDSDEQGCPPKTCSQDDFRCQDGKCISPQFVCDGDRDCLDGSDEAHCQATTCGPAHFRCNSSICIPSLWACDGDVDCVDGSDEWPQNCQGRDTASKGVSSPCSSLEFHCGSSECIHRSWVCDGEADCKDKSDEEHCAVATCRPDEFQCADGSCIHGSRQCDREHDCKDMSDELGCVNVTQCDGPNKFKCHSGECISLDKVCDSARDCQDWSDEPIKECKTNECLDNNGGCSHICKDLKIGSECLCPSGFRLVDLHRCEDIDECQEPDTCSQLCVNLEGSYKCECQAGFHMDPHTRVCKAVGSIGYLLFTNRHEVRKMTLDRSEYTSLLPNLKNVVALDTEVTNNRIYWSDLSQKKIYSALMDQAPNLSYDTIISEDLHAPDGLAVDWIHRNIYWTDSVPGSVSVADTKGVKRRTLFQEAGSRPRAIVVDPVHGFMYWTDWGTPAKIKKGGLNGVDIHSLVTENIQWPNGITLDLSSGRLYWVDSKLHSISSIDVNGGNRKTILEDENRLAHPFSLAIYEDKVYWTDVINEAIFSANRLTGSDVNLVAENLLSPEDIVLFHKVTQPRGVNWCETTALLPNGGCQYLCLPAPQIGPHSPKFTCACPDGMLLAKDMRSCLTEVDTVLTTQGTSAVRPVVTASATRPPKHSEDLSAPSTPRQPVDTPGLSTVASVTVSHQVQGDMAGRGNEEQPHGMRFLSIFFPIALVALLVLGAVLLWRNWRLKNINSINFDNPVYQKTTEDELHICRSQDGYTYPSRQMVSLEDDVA
T2 sequence (P02786 whole entry): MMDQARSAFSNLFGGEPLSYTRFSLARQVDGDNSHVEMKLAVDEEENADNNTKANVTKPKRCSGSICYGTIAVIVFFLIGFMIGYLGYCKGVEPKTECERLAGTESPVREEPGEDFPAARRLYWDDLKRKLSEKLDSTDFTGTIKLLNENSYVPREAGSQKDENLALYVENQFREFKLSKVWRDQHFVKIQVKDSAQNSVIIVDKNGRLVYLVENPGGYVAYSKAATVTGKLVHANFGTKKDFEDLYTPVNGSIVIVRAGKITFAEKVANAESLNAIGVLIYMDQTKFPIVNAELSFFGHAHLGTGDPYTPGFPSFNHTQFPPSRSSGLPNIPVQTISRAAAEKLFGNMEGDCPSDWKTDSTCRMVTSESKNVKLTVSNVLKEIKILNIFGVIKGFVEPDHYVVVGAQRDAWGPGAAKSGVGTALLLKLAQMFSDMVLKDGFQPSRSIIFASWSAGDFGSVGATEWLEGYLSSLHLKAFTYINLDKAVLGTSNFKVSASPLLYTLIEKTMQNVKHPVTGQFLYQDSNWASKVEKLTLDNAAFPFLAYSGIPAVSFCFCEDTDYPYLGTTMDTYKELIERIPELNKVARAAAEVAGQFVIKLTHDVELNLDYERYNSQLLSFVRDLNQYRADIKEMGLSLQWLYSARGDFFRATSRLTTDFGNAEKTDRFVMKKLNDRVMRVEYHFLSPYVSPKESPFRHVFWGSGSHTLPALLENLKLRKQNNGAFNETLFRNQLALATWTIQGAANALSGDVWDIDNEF

Row | percentage of hLDLR that co-localized with the S-Tag peptide [1] | Compound | other results
1 | under 10% | CCC(=O)N[C@@H](CC(C)C)C(=O)N[C@@H](CCCNC(=N)N)C(=O)N[C@@H](CCCCN)C(=O)N[C@@H](CC(C)C)C(=O)N[C@@H](CCCNC(=N)N)C(=O)N[C@@H](CCCCN)C(=O)N[C@@H](CCCNC(=N)N)C(=O)N[C@@H](CC(C)C)C(=O)N[C@@H](CC(C)C)C(=O)N[C@@H](CC(C)C)C(=O)N[C@@H](CCCNC(=N)N)C(=O)N[C@@H](CCCCN)C(=O)N[C@@H](CC(C)C)C(=O)N[C@@H](CCCNC(=N)N)C(=O)N[C@@H](CCCCN)C(=O)N[C@@H](CCCNC(=N)N)C(=O)N[C@@H](CC(C)C)C(=O)N[C@@H](CC(C)C)C(=O)NCC(=O)NCC(=O)NCC(=O)N[C@@H](CCCCN)C(=O)N[C@@H](CCC(=O)O)C(=O)N[C@H](C(=O)N[C@@H](C)C(=O)N[C@@H](C)C(=O)N[C@@H](C)C(=O)N[C@@H](CCCCN)C(=O)N[C@@H](Cc1ccccc1)C(=O)N[C@@H](CCC(=O)O)C(=O)N[C@@H](CCCNC(=N)N)C(=O)N[C@@H](CCC(N)=O)C(=O)N[C@@H](Cc1c[nH]cn1)C(=O)N[C@@H](CCSC)C(=O)N[C@@H](CC(=O)O)C(=O)N[C@@H](CO)C(N)=O)[C@@H](C)O [ApoE2-S-Tag] (Propionyl-LRKLRKRLLLRKLRKRLLGGGKETAAAKFERQHMDS-NH2) | 
2 |  | CCC(=O)N[C@@H]1CSSC(C)(C)[C@@H](C(=O)NCC(=O)NCC(=O)NCC(=O)N[C@@H](CCCCN)C(=O)N[C@@H](CCC(=O)O)C(=O)N[C@H](C(=O)N[C@@H](C)C(=O)N[C@@H](C)C(=O)N[C@@H](C)C(=O)N[C@@H](CCCCN)C(=O)N[C@@H](Cc2ccccc2)C(=O)N[C@@H](CCC(=O)O)C(=O)N[C@@H](CCCNC(=N)N)C(=O)N[C@@H](CCC(N)=O)C(=O)N[C@@H](Cc2c[nH]cn2)C(=O)N[C@@H](CCSC)C(=O)N[C@@H](CC(=O)O)C(=O)N[C@@H](CO)C(N)=O)[C@@H](C)O)NC(=O)CNC(=O)[C@H](CCCNC(=N)N)NC(=O)[C@H](CC(C)C)NC(=O)[C@H](CCCNC(=N)N)NC(=O)[C@@H]2CSCN2C(=O)[C@H](CCSC)NC1=O | co-localization with hTfR [2]: No co-localization
3 | under 10% | Propionyl-SVIDALQYKLEGTTRLTRKRGLKLATALSLSNKFVEGSGGGKETAAAKFERQHMDS-NH2 [ApoB-S-Tag] | 
4 |  | hIgG1Fc-SMCC- (Pr- cRPLGRMC-G-(CH2)2-S)2 (disulfide) [(VH4Sc)2-Fc, human IgG1-Fc chemically conjugated to scrambled VH4Sc peptide via sulfo-SMCC] | Fc labeling in adrenal gland zona fasciculata [3]: no Fc labeling
